Reference: PubChem BioAssay AID2060891 (Molecular Pharmacology Branch, DTP, NCI, 2025)

System: K98450-129-R-PDC complex spheroid growth, percent test/control
Experiment: Anticancer human tumor K98450-129-R-PDC patient-derived colon adenocarcinoma cell line growth inhibition [RAS]
Conditions: for IC50: curve of first compound; for viability, T/C: stronger effect = lower value
Summary of the method: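 Multi-cell-type spheroids: tumor cells plus HUVEC endothelial cells and mesenchymal stem cells. RAS-pathway inhibitors were combined with targeted agents, each dosed in half-log steps down from clinical Cmax, or from 10 microM when Cmax was unknown.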

[1] = second compound 0.0316 µM, first compound 0.000949 µM
[2] = second compound 0.0316 µM, first compound 0.003 µM
[3] = second compound 0.0316 µM, first compound 0.00949 µM
[4] = second compound 0.0316 µM, first compound 0.03 µM
[5] = second compound 0.0316 µM, first compound 0.0949 µM
[6] = second compound 0.0316 µM, first compound 0.3 µM
[7] = second compound 0.1 µM, first compound 0.000949 µM
[8] = second compound 0.1 µM, first compound 0.003 µM
[9] = second compound 0.1 µM, first compound 0.00949 µM
[10] = second compound 0.1 µM, first compound 0.03 µM
[11] = second compound 0.1 µM, first compound 0.0949 µM
[12] = second compound 0.1 µM, first compound 0.3 µM
[13] = second compound 0.316 µM, first compound 0.000949 µM
[14] = second compound 0.316 µM, first compound 0.003 µM
[15] = second compound 0.316 µM, first compound 0.00949 µM
[16] = second compound 0.316 µM, first compound 0.03 µM
[17] = second compound 0.316 µM, first compound 0.0949 µM
[18] = second compound 0.316 µM, first compound 0.3 µM
[19] = second compound 1 µM, first compound 0.000949 µM
[20] = second compound 1 µM, first compound 0.003 µM
[21] = second compound 1 µM, first compound 0.00949 µM
[22] = second compound 1 µM, first compound 0.03 µM
[23] = second compound 1 µM, first compound 0.0949 µM
[24] = second compound 1 µM, first compound 0.3 µM
[25] = second compound 3.16 µM, first compound 0.000949 µM
[26] = second compound 3.16 µM, first compound 0.003 µM
[27] = second compound 3.16 µM, first compound 0.00949 µM
[28] = second compound 3.16 µM, first compound 0.03 µM
[29] = second compound 3.16 µM, first compound 0.0949 µM
[30] = second compound 3.16 µM, first compound 0.3 µM
[31] = second compound 10 µM, first compound 0.000949 µM
[32] = second compound 10 µM, first compound 0.003 µM
[33] = second compound 10 µM, first compound 0.00949 µM
[34] = second compound 10 µM, first compound 0.03 µM
[35] = second compound 10 µM, first compound 0.0949 µM
[36] = second compound 10 µM, first compound 0.3 µM
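Further: spheroids exposed to agents for seven days before the viability readout.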
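Wherever viability, T/C is given: luminescence used as a proxy for viable cell amount.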

**Q.** What does the source list for `C=CC(=O)N1CCN(c2nc(OCC3CCCN3C)nc3c(F)c(-c4nc(N)cc(C)c4C(F)(F)F)c(Cl)cc23)C(C)C1` (stereo unspecified) + C#Cc1c(F)ccc2cc(O)cc(-c3ncc4c(N5CC6CCC(C5)N6)nc(OCC56CCCN5CC(F)C6)nc4c3F)c12?
**A.** IC50 (second compound 0.0316 µM): 0.164 µM; IC50 (second compound 0.1 µM): 0.143 µM; IC50 (second compound 0.316 µM): 0.137 µM; IC50 (second compound 1 µM): 0.0932 µM; IC50 (second compound 3.16 µM): 0.111 µM; IC50 (second compound 10 µM): 0.134 µM; viability, T/C (second compound 0.0316 µM, first compound 0.00316 µM): 94.9%; viability, T/C (second compound 0.0316 µM, first compound 0.01 µM): 81.4%; viability, T/C (second compound 0.0316 µM, first compound 0.0316 µM): 68.7%; viability, T/C (second compound 0.0316 µM, first compound 0.1 µM): 55%; viability, T/C (second compound 0.0316 µM, first compound 0.316 µM): 43.6%; viability, T/C (second compound 0.0316 µM, first compound 1 µM): 30.8%; viability, T/C (second compound 0.1 µM, first compound 0.00316 µM): 95.4%; viability, T/C (second compound 0.1 µM, first compound 0.01 µM): 81.3%; viability, T/C (second compound 0.1 µM, first compound 0.0316 µM): 68.7%; viability, T/C (second compound 0.1 µM, first compound 0.1 µM): 54.3%; viability, T/C (second compound 0.1 µM, first compound 0.316 µM): 40.5%; viability, T/C (second compound 0.1 µM, first compound 1 µM): 31.4%; viability, T/C (second compound 0.316 µM, first compound 0.00316 µM): 97.7%; viability, T/C (second compound 0.316 µM, first compound 0.01 µM): 86.4%; viability, T/C (second compound 0.316 µM, first compound 0.0316 µM): 70.9%; viability, T/C (second compound 0.316 µM, first compound 0.1 µM): 58.8%; viability, T/C (second compound 0.316 µM, first compound 0.316 µM): 33.9%; viability, T/C (second compound 0.316 µM, first compound 1 µM): 32.6%; viability, T/C (second compound 1 µM, first compound 0.00316 µM): 93.4%; viability, T/C (second compound 1 µM, first compound 0.01 µM): 88.7%; viability, T/C (second compound 1 µM, first compound 0.0316 µM): 67%; viability, T/C (second compound 1 µM, first compound 0.1 µM): 50.2%; viability, T/C (second compound 1 µM, first compound 0.316 µM): 37.2%; viability, T/C (second compound 1 µM, first compound 1 µM): 33.7%; viability, T/C (second compound 3.16 µM, first compound 0.00316 µM): 94.3%; viability, T/C (second compound 3.16 µM, first compound 0.01 µM): 80.4%; viability, T/C (second compound 3.16 µM, first compound 0.0316 µM): 69.7%; viability, T/C (second compound 3.16 µM, first compound 0.1 µM): 52%; viability, T/C (second compound 3.16 µM, first compound 0.316 µM): 34.7%; viability, T/C (second compound 3.16 µM, first compound 1 µM): 26.1%; viability, T/C (second compound 10 µM, first compound 0.00316 µM): 82.9%; viability, T/C (second compound 10 µM, first compound 0.01 µM): 78.4%; viability, T/C (second compound 10 µM, first compound 0.0316 µM): 68.8%; viability, T/C (second compound 10 µM, first compound 0.1 µM): 53.1%; viability, T/C (second compound 10 µM, first compound 0.316 µM): 38.9%; viability, T/C (second compound 10 µM, first compound 1 µM): 24.6%

**Q.** For `CC1(C)CCC(Nc2ncc(C(F)(F)F)c(-c3c[nH]c4c(P(C)(C)=O)c(C#N)ccc34)n2)CN1` (stereo unspecified) + C#Cc1c(F)ccc2cc(O)cc(-c3ncc4c(N5CC6CCC(C5)N6)nc(OCC56CCCN5CC(F)C6)nc4c3F)c12, which IC50 (second compound 0.0316 µM) is on record?
**A.** > 0.3 µM

**Q.** And the IC50 (second compound 0.1 µM)?
**A.** > 0.3 µM

**Q.** What about the IC50 (second compound 0.316 µM) of the same compound?
**A.** > 0.3 µM

**Q.** And the IC50 (second compound 1 µM)?
**A.** > 0.3 µM

**Q.** What about the IC50 (second compound 3.16 µM) of the same compound?
**A.** > 0.3 µM

**Q.** What about the IC50 (second compound 10 µM) of the same compound?
**A.** > 0.3 µM

**Q.** And the viability, T/C [1]?
**A.** 102%

**Q.** What about the viability, T/C [2] of the same compound?
**A.** 103%

**Q.** What about the viability, T/C [3] of the same compound?
**A.** 100%

**Q.** What about the viability, T/C [4] of the same compound?
**A.** 105%

**Q.** And the viability, T/C [5]?
**A.** 88.5%

**Q.** And the viability, T/C [6]?
**A.** 58.6%

**Q.** And the viability, T/C [7]?
**A.** 107%

**Q.** And the viability, T/C [8]?
**A.** 105%

**Q.** What about the viability, T/C [9] of the same compound?
**A.** 111%

**Q.** What about the viability, T/C [10] of the same compound?
**A.** 100%

**Q.** What about the viability, T/C [11] of the same compound?
**A.** 89.3%

**Q.** What about the viability, T/C [12] of the same compound?
**A.** 66.6%

**Q.** And the viability, T/C [13]?
**A.** 111%

**Q.** What about the viability, T/C [14] of the same compound?
**A.** 105%

**Q.** And the viability, T/C [15]?
**A.** 99.8%

**Q.** What about the viability, T/C [16] of the same compound?
**A.** 100%

**Q.** What about the viability, T/C [17] of the same compound?
**A.** 89.9%

**Q.** And the viability, T/C [18]?
**A.** 69.7%

**Q.** And the viability, T/C [19]?
**A.** 102%

**Q.** What about the viability, T/C [20] of the same compound?
**A.** 97.8%

**Q.** What about the viability, T/C [21] of the same compound?
**A.** 99.3%

**Q.** What about the viability, T/C [22] of the same compound?
**A.** 105%

**Q.** What about the viability, T/C [23] of the same compound?
**A.** 89.2%

**Q.** What about the viability, T/C [24] of the same compound?
**A.** 64%

**Q.** What about the viability, T/C [25] of the same compound?
**A.** 96.1%

**Q.** What about the viability, T/C [26] of the same compound?
**A.** 95.3%

**Q.** And the viability, T/C [27]?
**A.** 95.1%

**Q.** What about the viability, T/C [28] of the same compound?
**A.** 97.7%

**Q.** What about the viability, T/C [29] of the same compound?
**A.** 94.2%

**Q.** And the viability, T/C [30]?
**A.** 66.7%

**Q.** And the viability, T/C [31]?
**A.** 89%

**Q.** What about the viability, T/C [32] of the same compound?
**A.** 94.2%

**Q.** And the viability, T/C [33]?
**A.** 91.4%

**Q.** And the viability, T/C [34]?
**A.** 98.4%

**Q.** What about the viability, T/C [35] of the same compound?
**A.** 85.9%

**Q.** What about the viability, T/C [36] of the same compound?
**A.** 61.9%

**Q.** With `CCc1c2c(nc3ccc(O)cc13)-c1cc3c(c(=O)n1C2)COC(=O)[C@]3(O)CC` + C#Cc1c(F)ccc2cc(O)cc(-c3ncc4c(N5CC6CCC(C5)N6)nc(OCC56CCCN5CC(F)C6)nc4c3F)c12 as the compound, how does the IC50 (second compound 0.0316 µM) read?
**A.** 0.0364 µM

**Q.** What about the IC50 (second compound 0.1 µM) of the same compound?
**A.** 0.0441 µM

**Q.** And the IC50 (second compound 0.316 µM)?
**A.** 0.0479 µM

**Q.** What about the IC50 (second compound 1 µM) of the same compound?
**A.** 0.0469 µM

**Q.** And the IC50 (second compound 3.16 µM)?
**A.** 0.0433 µM

**Q.** And the IC50 (second compound 10 µM)?
**A.** 0.0328 µM

**Q.** What about the viability, T/C [1] of the same compound?
**A.** 103%

**Q.** What about the viability, T/C [2] of the same compound?
**A.** 102%

**Q.** What about the viability, T/C [3] of the same compound?
**A.** 75.7%

**Q.** What about the viability, T/C [4] of the same compound?
**A.** 52.2%

**Q.** And the viability, T/C [5]?
**A.** 43.3%

**Q.** And the viability, T/C [6]?
**A.** 33.5%

**Q.** What about the viability, T/C [7] of the same compound?
**A.** 109%

**Q.** What about the viability, T/C [8] of the same compound?
**A.** 101%

**Q.** And the viability, T/C [9]?
**A.** 80.5%

**Q.** And the viability, T/C [10]?
**A.** 52.5%

**Q.** And the viability, T/C [11]?
**A.** 44.4%

**Q.** What about the viability, T/C [12] of the same compound?
**A.** 33%

**Q.** What about the viability, T/C [13] of the same compound?
**A.** 108%

**Q.** And the viability, T/C [14]?
**A.** 101%

**Q.** What about the viability, T/C [15] of the same compound?
**A.** 84.5%

**Q.** What about the viability, T/C [16] of the same compound?
**A.** 54.4%

**Q.** And the viability, T/C [17]?
**A.** 43.6%

**Q.** And the viability, T/C [18]?
**A.** 34%

**Q.** And the viability, T/C [19]?
**A.** 109%

**Q.** And the viability, T/C [20]?
**A.** 100%

**Q.** What about the viability, T/C [21] of the same compound?
**A.** 86.8%

**Q.** What about the viability, T/C [22] of the same compound?
**A.** 54%

**Q.** What about the viability, T/C [23] of the same compound?
**A.** 42.9%

**Q.** What about the viability, T/C [24] of the same compound?
**A.** 36.9%

**Q.** And the viability, T/C [25]?
**A.** 95.7%

**Q.** And the viability, T/C [26]?
**A.** 89.3%

**Q.** And the viability, T/C [27]?
**A.** 78.1%

**Q.** And the viability, T/C [28]?
**A.** 51.9%

**Q.** What about the viability, T/C [29] of the same compound?
**A.** 43.6%

**Q.** And the viability, T/C [30]?
**A.** 33.1%

**Q.** And the viability, T/C [31]?
**A.** 87.2%

**Q.** And the viability, T/C [32]?
**A.** 84.3%

**Q.** And the viability, T/C [33]?
**A.** 75.5%

**Q.** What about the viability, T/C [34] of the same compound?
**A.** 50.9%

**Q.** And the viability, T/C [35]?
**A.** 37.2%

**Q.** And the viability, T/C [36]?
**A.** 33.8%
